# According to patent US20260092071A1, “COMPOUNDS AND COMPOSITIONS AS SMARCA2/4 DEGRADERS AND USES THEREOF” (REGENTS OF THE UNIVERSITY OF MICHIGAN, priority 2022, published 2026):
# Columns and labels:
# SMARCA2 = SMARCA2 (Homo sapiens, UniProt P51531); assay: HiBit assay in engineered HT1080 CRISPR knock-in cell, 6 hrs (B series), SMARCA2; type: cell-based; details: 6 hrs incubation; for DC50: read-out: SMARC A2 HT1080 HiBit DC50; for Dmax: HT-1080, HT1080 CRISPR knock-in cells, read-out: SMARC A2 HT1080 HiBit Dmax (%)
# SMARCA2, sequence (P51531 whole entry): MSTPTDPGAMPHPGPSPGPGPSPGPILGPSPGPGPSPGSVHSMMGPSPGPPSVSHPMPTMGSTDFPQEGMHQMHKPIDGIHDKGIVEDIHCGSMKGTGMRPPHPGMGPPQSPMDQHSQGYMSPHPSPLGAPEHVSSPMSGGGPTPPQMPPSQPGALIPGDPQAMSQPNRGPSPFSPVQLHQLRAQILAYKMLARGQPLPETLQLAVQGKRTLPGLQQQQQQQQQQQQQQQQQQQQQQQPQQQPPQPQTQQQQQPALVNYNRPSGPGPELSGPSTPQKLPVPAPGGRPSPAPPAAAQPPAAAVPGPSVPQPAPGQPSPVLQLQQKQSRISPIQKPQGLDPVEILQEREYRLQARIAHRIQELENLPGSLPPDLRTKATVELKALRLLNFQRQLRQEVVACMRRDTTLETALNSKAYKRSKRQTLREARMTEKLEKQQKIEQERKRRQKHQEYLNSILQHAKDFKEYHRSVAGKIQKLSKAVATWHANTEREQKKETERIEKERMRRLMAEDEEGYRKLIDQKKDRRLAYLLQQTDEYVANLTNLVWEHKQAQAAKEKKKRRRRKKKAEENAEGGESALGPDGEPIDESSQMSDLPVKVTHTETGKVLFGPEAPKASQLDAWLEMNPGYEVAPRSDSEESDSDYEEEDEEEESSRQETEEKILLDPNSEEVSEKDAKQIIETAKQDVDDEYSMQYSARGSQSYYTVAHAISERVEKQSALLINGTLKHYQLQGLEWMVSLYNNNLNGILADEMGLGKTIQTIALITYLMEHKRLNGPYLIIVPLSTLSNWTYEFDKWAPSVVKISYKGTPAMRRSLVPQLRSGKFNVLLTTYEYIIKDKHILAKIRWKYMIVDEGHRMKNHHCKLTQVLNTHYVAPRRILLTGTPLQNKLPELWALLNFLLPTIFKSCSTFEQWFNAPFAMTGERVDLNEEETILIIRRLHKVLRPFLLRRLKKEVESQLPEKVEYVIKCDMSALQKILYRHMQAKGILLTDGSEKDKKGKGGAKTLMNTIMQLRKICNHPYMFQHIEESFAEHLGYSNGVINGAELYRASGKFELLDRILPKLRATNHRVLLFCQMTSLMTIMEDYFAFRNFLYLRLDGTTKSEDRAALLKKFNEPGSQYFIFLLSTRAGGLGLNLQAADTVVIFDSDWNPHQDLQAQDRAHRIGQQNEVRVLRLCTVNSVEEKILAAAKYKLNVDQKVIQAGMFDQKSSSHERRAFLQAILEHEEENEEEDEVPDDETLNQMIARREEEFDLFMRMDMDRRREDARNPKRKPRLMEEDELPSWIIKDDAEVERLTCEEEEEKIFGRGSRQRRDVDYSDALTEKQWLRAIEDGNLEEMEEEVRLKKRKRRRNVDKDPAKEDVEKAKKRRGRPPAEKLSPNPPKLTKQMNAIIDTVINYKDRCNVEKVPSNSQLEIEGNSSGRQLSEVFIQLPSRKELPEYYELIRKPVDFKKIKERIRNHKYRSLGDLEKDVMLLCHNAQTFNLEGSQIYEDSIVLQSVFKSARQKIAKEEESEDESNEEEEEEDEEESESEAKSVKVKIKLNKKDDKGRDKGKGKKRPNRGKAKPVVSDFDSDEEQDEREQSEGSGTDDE
# Method in brief: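 Compounds were dispensed first, then HT1080 knock-in cells added and incubated for 6 hrs at 37° C. Next, detection reagent containing LgBiT and lytic substrate was added. Plates were shaken 10 min and centrifuged, and luminescence was measured.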
# SMARCA4 = SMARCA4 (Homo sapiens, UniProt P51532); assay: HiBit assay in engineered HT1080 CRISPR knock-in cell, 6 hrs (B series), SMARCA4; type: cell-based; details: 6 hrs incubation; for DC50: read-out: SMARC A4 HT1080 HiBit DC50; for Dmax: HT-1080, HT1080 CRISPR knock-in cells, read-out: SMARC A4 HT1080 HiBit Dmax(%)
# SMARCA4, sequence (P51532 whole entry): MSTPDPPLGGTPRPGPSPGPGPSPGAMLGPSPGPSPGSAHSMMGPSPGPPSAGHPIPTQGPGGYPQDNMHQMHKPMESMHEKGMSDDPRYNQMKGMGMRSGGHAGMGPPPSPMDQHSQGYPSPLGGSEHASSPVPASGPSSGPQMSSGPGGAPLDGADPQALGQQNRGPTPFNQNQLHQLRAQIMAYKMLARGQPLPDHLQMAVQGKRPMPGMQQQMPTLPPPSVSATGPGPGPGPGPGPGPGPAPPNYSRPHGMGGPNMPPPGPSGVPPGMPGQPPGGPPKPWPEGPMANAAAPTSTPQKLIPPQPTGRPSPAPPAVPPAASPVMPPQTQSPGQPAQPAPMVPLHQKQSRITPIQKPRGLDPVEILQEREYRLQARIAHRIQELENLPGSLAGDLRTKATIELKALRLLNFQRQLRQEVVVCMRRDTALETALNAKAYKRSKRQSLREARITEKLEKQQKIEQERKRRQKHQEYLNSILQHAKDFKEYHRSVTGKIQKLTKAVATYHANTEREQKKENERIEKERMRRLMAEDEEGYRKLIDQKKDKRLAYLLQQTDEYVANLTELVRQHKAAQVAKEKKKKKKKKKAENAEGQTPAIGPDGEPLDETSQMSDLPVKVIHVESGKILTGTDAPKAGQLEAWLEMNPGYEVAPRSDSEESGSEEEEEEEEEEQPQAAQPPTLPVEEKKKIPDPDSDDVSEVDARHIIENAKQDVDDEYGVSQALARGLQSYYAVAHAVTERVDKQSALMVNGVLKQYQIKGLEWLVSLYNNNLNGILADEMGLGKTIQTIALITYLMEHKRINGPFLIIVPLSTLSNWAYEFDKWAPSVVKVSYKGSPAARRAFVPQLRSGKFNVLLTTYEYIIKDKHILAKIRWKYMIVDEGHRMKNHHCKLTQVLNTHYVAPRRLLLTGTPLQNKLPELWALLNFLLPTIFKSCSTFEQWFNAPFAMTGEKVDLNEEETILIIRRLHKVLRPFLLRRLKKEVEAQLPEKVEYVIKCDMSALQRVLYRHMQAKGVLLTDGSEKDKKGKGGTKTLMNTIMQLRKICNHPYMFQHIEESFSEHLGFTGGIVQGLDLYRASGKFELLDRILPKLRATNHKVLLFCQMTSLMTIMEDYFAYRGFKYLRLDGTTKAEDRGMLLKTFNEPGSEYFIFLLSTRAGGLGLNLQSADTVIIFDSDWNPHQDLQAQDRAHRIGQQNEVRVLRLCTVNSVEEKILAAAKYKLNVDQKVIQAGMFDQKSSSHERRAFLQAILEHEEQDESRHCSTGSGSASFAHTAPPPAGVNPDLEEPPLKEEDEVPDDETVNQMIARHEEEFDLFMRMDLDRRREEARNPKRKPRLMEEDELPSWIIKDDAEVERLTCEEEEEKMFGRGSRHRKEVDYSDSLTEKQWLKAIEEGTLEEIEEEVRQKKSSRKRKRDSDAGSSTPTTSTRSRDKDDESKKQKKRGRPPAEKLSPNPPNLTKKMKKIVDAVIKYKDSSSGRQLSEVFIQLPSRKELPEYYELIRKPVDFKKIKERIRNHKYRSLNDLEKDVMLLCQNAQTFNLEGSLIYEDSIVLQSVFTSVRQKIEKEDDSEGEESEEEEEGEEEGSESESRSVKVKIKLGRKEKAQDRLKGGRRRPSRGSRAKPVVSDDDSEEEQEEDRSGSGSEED
# Method in brief: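 HT1080 CRISPR knock-in cells carrying the HiBiT tag were seeded onto compounds (final DMSO 0.1%) and incubated 6 hrs at 37° C, 5% CO2. Remaining tagged protein was detected by lytic HiBiT luminescence after adding LgBiT protein and substrate, with LgBiT-free wells serving as negative control.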
SMILES,DC50 (SMARCA2; HT1080 CRISPR knock-in cells),Dmax (SMARCA2),DC50 (SMARCA4; HT1080 CRISPR knock-in cells),Dmax (SMARCA4),SMARC A2 HT1080 HiBit Dmax (%) (SMARCA2; HT1080 CRISPR knock-in cells),SMARC A4 HT1080 HiBit Dmax(%) (SMARCA4; HT1080 CRISPR knock-in cells)
"Cc1ncsc1-c1ccc([C@H](C)NC(=O)[C@@H]2C[C@@H](O)CN2C(=O)[C@@H](NC(=O)c2ccc(CN3CCC(c4ccc5c(c4)C(C)(C)c4nc(=O)c6c(Cl)cccc6n4-5)CC3)s2)C(C)(C)C)cc1 [Compound B20, (2S,4R)-1-((S)-2-(5-((4-(4-chloro-7,7-dimethyl-5-oxo-5,7-dihydroindolo[1,2-a]quinazolin-9-yl)piperidin-1-yl)methyl)thiophene-2-carboxamido)-3,3-dimethylbutanoyl)-4-hydroxy-N-((S)-1-(4-(4-methylthiazol-5-yl)phenyl)ethyl)pyrrolidine-2-carboxamide]",< 100 nM,> 90%,< 100 nM,70 to 90%,,
"Cc1ncsc1-c1ccc([C@H](C)NC(=O)[C@@H]2C[C@@H](O)CN2C(=O)[C@H](C(C)C)n2cc([C@H]3CC[C@H](CN4CCC(c5ccc6c(c5)-n5c(nc(=O)c7c(Cl)cccc75)C6(C)C)CC4)CC3)nn2)cc1 [Compound B41, (2S,4R)-1-((S)-2-(4-((1r,4S)-4-((4-(4-chloro-7,7-dimethyl-5-oxo-5,7-dihydroindolo[1,2-a]quinazolin-10-yl)piperidin-1-yl)methyl)cyclohexyl)-1H-1,2,3-triazol-1-yl)-3-methylbutanoyl)-4-hydroxy-N-((S)-1-(4-(4-methylthiazol-5-yl)phenyl)ethyl)pyrrolidine-2-carboxamide]",< 100 nM,> 90%,< 100 nM,70 to 90%,,
"Cc1ncsc1-c1ccc([C@H](C)NC(=O)[C@@H]2C[C@@H](O)CN2C(=O)[C@@H](NC(=O)c2cccc(CN3CCC(c4ccc5c(c4)C(C)(C)c4nc(=O)c6c(Cl)cccc6n4-5)CC3)c2)C(C)(C)C)cc1 [Compound B16, (2S,4R)-1-((S)-2-(3-((4-(4-chloro-7,7-dimethyl-5-oxo-5,7-dihydroindolo[1,2-a]quinazolin-9-yl)piperidin-1-yl)methyl)benzamido)-3,3-dimethylbutanoyl)-4-hydroxy-N—((S)-1-(4-(4-methylthiazol-5-yl)phenyl)ethyl)pyrrolidine-2-carboxamide]",< 100 nM,> 90%,< 100 nM,70 to 90%,,
"Cc1ncsc1-c1ccc([C@H](C)NC(=O)[C@@H]2C[C@@H](O)CN2C(=O)[C@@H](c2cc(OCC3(CN4CCC(c5ccc6c(c5)-n5c(nc(=O)c7c(Cl)cccc75)C6(C)C)CC4)CC3)no2)C(C)C)cc1 [Compound B91, (2S,4R)-1-((R)-2-(3-((1-((4-(4-chloro-7,7-dimethyl-5-oxo-5,7-dihydroindolo[1,2-a]quinazolin-10-yl)piperidin-1-yl)methyl)cyclopropyl)methoxy)isoxazol-5-yl)-3-methylbutanoyl)-4-hydroxy-N-((S)-1-(4-(4-methylthiazol-5-yl)phenyl)ethyl)pyrrolidine-2-carboxamide]",< 100 nM,> 90%,< 100 nM,> 90%,,
"Cc1ncsc1-c1ccc([C@H](C)NC(=O)[C@@H]2C[C@@H](O)CN2C(=O)[C@H](C(C)C)n2cc(C3CCC(c4cccc5c4C(C)(C)c4nc(=O)c6c(Cl)cccc6n4-5)CC3)nn2)cc1 (stereo partly drawn) [Compound B162, (2S,4R)-1-((S)-2-(4-(4-(4-chloro-7,7-dimethyl-5-oxo-5,7-dihydroindolo[1,2-a]quinazolin-8-yl)cyclohexyl)-1H-1,2,3-triazol-1-yl)-3-methylbutanoyl)-4-hydroxy-N-((S)-1-(4-(4-methylthiazol-5-yl)phenyl)ethyl)pyrrolidine-2-carboxamide]",< 100 nM,,< 100 nM,,A (A (>90% degradation)),C (C (50-69% degradation))
"Cc1ncsc1-c1ccc([C@H](C)NC(=O)[C@@H]2C[C@@H](O)CN2C(=O)[C@@H](c2cc(OCCCn3cc(-c4ccc5c(c4)-n4c(nc(=O)c6c(Cl)cccc64)C5(C)C)cn3)no2)C(C)C)cc1 [Compound B72, (2S,4R)-1-((R)-2-(3-(3-(4-(4-chloro-7,7-dimethyl-5-oxo-5,7-dihydroindolo[1,2-a]quinazolin-10-yl)-1H-pyrazol-1-yl)propoxy)isoxazol-5-yl)-3-methylbutanoyl)-4-hydroxy-N-((S)-1-(4-(4-methylthiazol-5-yl)phenyl)ethyl)pyrrolidine-2-carboxamide]",< 100 nM,50 to 69%,< 100 nM,< 50%,,
"Cc1ncsc1-c1ccc([C@H](C)NC(=O)[C@@H]2C[C@@H](O)CN2C(=O)[C@H](C(C)C)n2cc(C3CCC(c4cccc5c4C(C)(C)c4nc(=O)c6c(Cl)cccc6n4-5)CC3)nn2)cc1 (stereo partly drawn) [Compound B137, (2S,4R)-1-((S)-2-(4-(4-(4-chloro-7,7-dimethyl-5-oxo-5,7-dihydroindolo[1,2-a]quinazolin-8-yl)cyclohexyl)-1H-1,2,3-triazol-1-yl)-3-methylbutanoyl)-4-hydroxy-N-((S)-1-(4-(4-methylthiazol-5-yl)phenyl)ethyl)pyrrolidine-2-carboxamide]",< 100 nM,> 90%,< 100 nM,< 50%,,
"C[C@H](NC(=O)[C@@H]1C[C@@H](O)CN1C(=O)[C@@H](n1cc(C2CCC(CN3CCC(c4ccc5c(c4)-n4c(nc(=O)c6c(Cl)cccc64)C54CCCCC4)CC3)CC2)nn1)C(C)(C)C)c1ccc(-c2scnc2CCCN2CCOCC2)cc1 (stereo partly drawn) [Compound B108, (2S,4R)-1-((S)-2-(4-((11,4S)-4-((4-(4′-chloro-5′-oxo-5′H-spiro[cyclohexane-1,7′-indolo[1,2-a]quinazolin]-10′-yl)piperidin-1-yl)methyl)cyclohexyl)-1H-1,2,3-triazol-1-yl)-3,3-dimethylbutanoyl)-4-hydroxy-N-((S)-1-(4-(4-(3-morpholinopropyl)thiazol-5-yl)phenyl)ethyl)pyrrolidine-2-carboxamide]",100 to 500 nM,> 90%,100 to 500 nM,50 to 69%,,
"Cc1ncsc1-c1ccc([C@H](CN2CCOCC2)NC(=O)[C@@H]2C[C@@H](O)CN2C(=O)[C@@H](c2cc(O[C@H]3CC[C@H](CN4CCN(c5ccc6c(c5)-n5c(nc(=O)c7c(Cl)cccc75)C65CCCCC5)CC4)CC3)no2)C(C)C)cc1 [Compound B138, (2S,4R)-1-((R)-2-(3-(((1r,4R)-4-((4-(4′-chloro-5′-oxo-5′H-spiro[cyclohexane-1,7′-indolo[1,2-a]quinazolin]-10′-yl)piperazin-1-yl)methyl)cyclohexyl)oxy)isoxazol-5-yl)-3-methylbutanoyl)-4-hydroxy-N-((R)-1-(4-(4-methylthiazol-5-yl)phenyl)-2-morpholinoethyl)pyrrolidine-2-carboxamide]",< 100 nM,> 90%,< 100 nM,> 90%,,
"Cc1ncsc1-c1ccc([C@H](C)NC(=O)[C@@H]2C[C@@H](O)CN2C(=O)[C@@H](NC(=O)CCCCn2cc(-c3ccc4c(c3)C(C)(C)c3nc(=O)c5c(Cl)cccc5n3-4)cn2)C(C)(C)C)cc1 [Compound B87, (2S,4R)-1-((S)-2-(5-(4-(4-chloro-7,7-dimethyl-5-oxo-5,7-dihydroindolo[1,2-a]quinazolin-9-yl)-1H-pyrazol-1-yl)pentanamido)-3,3-dimethylbutanoyl)-4-hydroxy-N-((S)-1-(4-(4-methylthiazol-5-yl)phenyl)ethyl)pyrrolidine-2-carboxamide]",100 to 500 nM,50 to 69%,> 1000 nM,< 50%,,
"Cc1cc(C(C(=O)N2C[C@H](O)C[C@H]2C(=O)N[C@@H](CCCCCN2CCC(c3ccc4c(c3)C(C)(C)c3nc(=O)c5c(Cl)cccc5n3-4)CC2)c2ccc(-c3scnc3C)cc2)C(C)C)on1 (stereo partly drawn) [Compound B85, (2S,4R)-N-((S)-6-(4-(4-chloro-7,7-dimethyl-5-oxo-5,7-dihydroindolo[1,2-a]quinazolin-9-yl)piperidin-1-yl)-1-(4-(4-methylthiazol-5-yl)phenyl)hexyl)-4-hydroxy-1-(3-methyl-2-(3-methylisoxazol-5-yl)butanoyl)pyrrolidine-2-carboxamide]",< 100 nM,> 90%,< 100 nM,> 90%,,
"Cc1ncsc1-c1ccc([C@H](C)NC(=O)[C@@H]2C[C@@H](O)CN2C(=O)[C@@H](c2cc(OC3CCC(N4CCC(c5ccc6c(c5)-n5c(nc(=O)c7c(Cl)cccc75)C6(C)C)CC4)CC3)no2)C(C)C)cc1 (stereo partly drawn) [Compound B81, (2S,4R)-1-((R)-2-(3-((4-(4-(4-chloro-7,7-dimethyl-5-oxo-5,7-dihydroindolo[1,2-a]quinazolin-10-yl)piperidin-1-yl)cyclohexyl)oxy)isoxazol-5-yl)-3-methylbutanoyl)-4-hydroxy-N-((S)-1-(4-(4-methylthiazol-5-yl)phenyl)ethyl)pyrrolidine-2-carboxamide]",< 100 nM,> 90%,< 100 nM,< 50%,,
"Cc1ncsc1-c1ccc([C@H](C)NC(=O)[C@@H]2C[C@@H](O)CN2C(=O)[C@@H](n2cc(CN3CCC(c4ccc5c(c4)-n4c(nc(=O)c6c(Cl)cccc64)C5(C)C)CC3)nn2)C(C)(C)C)cc1 [Compound B69, (2S,4R)-1-((S)-2-(4-((4-(4-chloro-7,7-dimethyl-5-oxo-5,7-dihydroindolo[1,2-a]quinazolin-10-yl)piperidin-1-yl)methyl)-1H-1,2,3-triazol-1-yl)-3,3-dimethylbutanoyl)-4-hydroxy-N-((S)-1-(4-(4-methylthiazol-5-yl)phenyl)ethyl)pyrrolidine-2-carboxamide]",< 100 nM,> 90%,100 to 500 nM,< 50%,,
